In patent US20070197509A1, “Compositions and methods for modulating gated ion channels” (PainCeptor Pharma Corporation, priority 2005, published 2007):

Assays:
hASIC1a [1] = molecular target: T1, hASIC1a (Homo sapiens, UniProt P78348); assay: Whole-cell patch clamp of acid-induced currents in cells transfected with hASIC1a; format: cell-based; parameters: expressed in transfected cells; conditions: for IC50 (μM) Patch Clamp (h1a): Table H
T1 sequence (P78348 1-528): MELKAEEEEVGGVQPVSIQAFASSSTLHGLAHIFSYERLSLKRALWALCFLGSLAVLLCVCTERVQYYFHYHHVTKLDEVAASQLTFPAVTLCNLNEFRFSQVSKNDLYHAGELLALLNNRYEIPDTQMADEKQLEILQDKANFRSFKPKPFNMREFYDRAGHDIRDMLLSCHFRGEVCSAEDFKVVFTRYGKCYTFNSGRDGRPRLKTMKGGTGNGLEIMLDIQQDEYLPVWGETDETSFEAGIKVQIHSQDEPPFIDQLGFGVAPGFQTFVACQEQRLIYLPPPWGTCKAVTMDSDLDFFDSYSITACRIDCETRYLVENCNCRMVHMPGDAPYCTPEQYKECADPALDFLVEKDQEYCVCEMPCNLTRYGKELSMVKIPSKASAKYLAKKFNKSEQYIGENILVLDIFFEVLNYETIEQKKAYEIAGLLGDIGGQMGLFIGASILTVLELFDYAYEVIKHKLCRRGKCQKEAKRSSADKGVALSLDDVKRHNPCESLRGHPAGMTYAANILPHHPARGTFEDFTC
Protocol: Another example of an in vitro assessment method consists of using mammalian heterologous expression systems, which are known to those skilled in the art, and include a variety of mammalian cell lines such as COS, HEK, e.g., HEK293 and/or CHO, cells. Cell lines are transfected with gated ion channel(s) and used to perform electrophysiology as follows:
All experiments are performed at room temperature (20-25° C.) in voltage clamp using conventional whole cell patch clamp methods (Neher, E., et al. (1978) Pfluegers Arch 375:219-228).
The amplifier used is the EPC-9 (HEKA-electronics, Lambrect, Germany) run by a Macintosh G3 computer via an ITC-16 interface. Experimental conditions are set with the Pulse-software accompanying the amplifier. Data is low pass filtered and sampled directly to hard-disk at a rate of 3 times the cut-off frequency.
Pipettes are pulled from borosilicate glass using a horizontal electrode puller (Zeitz-lnstrumente, Augsburg, Germany). The pipette resistances are 2-3 MOhms in the salt solutions used in these experiments. The pipette electrode is a chloridized silver wire, and the reference is a silver chloride pellet electrode (In Vivo Metric, Healdsburg, USA) fixed to the experimental chamber. The electrodes are zeroed with the open pipette in the bath just prior to sealing.
Coverslips with the cells are transferred to a 15 μl experimental chamber mounted on the stage of an inverted microscope (IMT-2, Olympus) supplied with Nomarski optics. Cells are continuously superfused with extracellular saline at a rate of 2.5 ml/min. After giga-seal formation, the whole cell configuration is attained by suction. The cells are held at a holding voltage of −60 mV and at the start of each experiment the current is continuously measured for 45 s to ensure a stable baseline. Solutions of low pH (<7) are delivered to the chamber through a custom-made gravity-driven flowpipe, the tip of which is placed approximately 50 μm from the cell. Application is triggered when the tubing connected to the flowpipe is compressed by a valve controlled by the Pulse-software. Initially, low pH (in general, pH 6.5) is applied for 5 s every 60 s. The sample interval during application is 550 μs. After stable responses are obtained, the extracellular saline as well as the low-pH solution are switched to solutions containing the compound to be tested. The compound is present until responses of repeatable amplitude are achieved. Current amplitudes are measured at the peak of the responses, and effect of the compounds is calculated as the amplitude at compound equilibrium divided by the amplitude of the current evoked by the pulse just before the compound was included.
The following salt solutions are used: extracellular solution (mM): NaCl (140), KCl (4), CaCl2 (2), MgCl2 (4), HEPES (10, pH 7.4); intracellular solution (mM): KCl (120), KOH (31), MgCl2 (1.785), EGTA (10), HEPES (10, pH 7.2). In general, compounds for testing are dissolved in 50% DMSO at 500 fold the highest concentration used.
CHO cells were transfected with hASIC1a and used to perform full dose-inhibition curves with Compound B, and Compound R. Results are expressed as a fraction of the control peak current obtained in the absence of the test substance.

hASIC1a [2] = molecular target: T1, hASIC1a; assay: Two-electrode voltage clamp in Xenopus laevis oocytes expressing hASIC1a (OpusExpress); format: cell-based; parameters: expressed in transfected cells; host or cells: Xenopus laevis oocytes, nuclear microinjection of cDNA (e.g. in pCDNA3)
Protocol: Two-electrode voltage clamp electrophysiological assays in Xenopus laevis oocytes expressing gated ion channels are performed as follows:
Oocytes are surgically removed from adult Xenopus laevis and treated for 2 h at room temperature with 1 mg/ml type I collagenase (Sigma) in Barth's solution under mild agitation. Selected oocytes at stage IV-V are defolliculated manually before nuclear microinjection of 2.5-5 ng of a suitable expression vector, such as pCDNA3, comprising the nucleotide sequence encoding a gated ion channel subunit protein. In such an experiment, the oocytes express homomultimeric proton-gated ion channels on their surface. In an alternate experiment, one, two, three or more vectors comprising the coding sequences for distinct gated ion channel subunits are co-injected in the oocyte nuclei. In the latter case, oocytes express heteromultimeric proton-gated ion channels. […] Once impaled with the microelectrodes, oocytes are continuously superfused at 10-12 ml/min with a modified Ringer's solution containing 97 mM NaCl, 2 mM KCl, 1.8 mM CaCl2, and 10 mM HEPES brought to pH 7.4 with NaOH (Control Ringer). Test Ringer solution is prepared by replacing HEPES with MES and adjusting the pH to the desired acidic value. Compounds of the present invention are prepared in both the Control and Test Ringer solutions and applied to oocytes at room temperature through a computer-controlled switching valve system. […] Similarly, recordings can also be acquired in an automated multichannel oocytes system as the OpusExpress™ (Molecular Devices, Sunnyvale, Calif., USA).
Recordings were acquired from oocytes expressing homomeric hASIC1a using a two-electrode voltage-clamp configuration procedure as described herein.

hASIC3 = molecular target: T2, hASIC3 (Homo sapiens, UniProt Q9UHC3); assay: FlexStation assay on HEK293 cells expressing hASIC3; format: cell-based; parameters: expressed in transfected cells; host or cells: HEK293 cells; conditions: FlexStation (Flex), Tables A-F; read-out: Biological Data (IC50 uM) h3 (Flex)
T2 sequence (Q9UHC3 1-531): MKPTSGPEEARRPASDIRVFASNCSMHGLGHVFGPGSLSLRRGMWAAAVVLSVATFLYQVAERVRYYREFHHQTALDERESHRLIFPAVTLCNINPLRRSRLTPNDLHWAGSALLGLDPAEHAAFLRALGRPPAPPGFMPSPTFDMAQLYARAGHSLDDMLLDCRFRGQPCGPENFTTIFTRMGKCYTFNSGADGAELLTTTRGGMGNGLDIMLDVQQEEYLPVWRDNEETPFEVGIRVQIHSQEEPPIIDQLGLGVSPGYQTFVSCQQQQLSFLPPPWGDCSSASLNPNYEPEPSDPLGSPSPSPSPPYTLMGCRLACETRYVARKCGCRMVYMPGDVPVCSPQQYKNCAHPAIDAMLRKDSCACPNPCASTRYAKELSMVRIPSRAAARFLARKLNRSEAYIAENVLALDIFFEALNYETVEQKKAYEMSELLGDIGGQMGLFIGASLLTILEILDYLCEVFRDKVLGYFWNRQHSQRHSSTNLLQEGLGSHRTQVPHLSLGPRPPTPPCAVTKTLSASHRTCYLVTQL
Protocol: A vial of FMP dye (Molecular Devices) is resuspended in 10.5 ml of assay buffer (48.3 mM NaCl, 93 mM NMDG, 5 mM KCl, 5 mM CaCl2, 1 mM MgCl2, 10 mM HEPES, pH 7.4). The culture medium is aspirated from the wells, and 100 μl of the FMP loading solution is added to each well. The cells are incubated at 37° C. for 30 min.
After the loading period, the loading solution is left on the cells and the membrane potential-induced fluorescence is measured in FLIPR™ or FlexStation™ (Molecular Devices, USA), or any other suitable equipment known to the skilled in the art.
For cells co-expressing ASIC1a and ASIC3 channels (e.g. HEK293 cells), membrane potential dye (FMP dye) is used and the FlexStation settings are as above.
(§1) The MES-induced peak calcium response (or change in membrane potential), in the presence of test substance, is expressed relative to the MES response alone. Test substances that block the MES-induced calcium response (or change in membrane potential) are re-tested in triplicates. Confirmed hits are picked for further characterization by performing full dose-response curves to determine potency of each hit compound as represented by the IC50 values (i.e., the concentration of the test substance which inhibits 50% of the MES-induced calcium and/or membrane potentiation response; see, for example, FIG. 1).
(§2) The data shown in Table H was acquired using the FlexStation assay described in Example 1 on HEK293 cells expressing hASIC3 (h3) and/or hASIC1a (h1a).

[3] = test system: T3, hASIC3 (h3) and/or hASIC1a (h1a); assay: FlexStation/FLIPR assay, channel not marked in the cell; format: cell-based, human; conditions: Table H, cells without channel mark; HEK293; read-out: EC50 (μM) Flex/FLIPR
T3 construct: EC50 (μM) in one experiment; HEK293
Excerpt: as §1, §2

[4] = patch clamp (PC), Tables A-F, h1a printed in some cells only
[5] = OpusExpress (OX), Tables A-F, h1a printed in some cells only
[6] = OpusExpress (OX), Tables A-F, h1a printed in some cells only, read-out: Biological Data (IC50 uM) h1a (OX)
[7] = Table H, read-out: IC50 (μM) Opus Express (h1a)

Compound | IC50 (hASIC3) | EC50 [3] | IC50 (hASIC1a [2]; [7]) | further results
COc1ccc(N2CCN(C(=O)c3cc(-c4ccc(OC)c(OC)c4)nc4ccccc34)CC2)cc1 [Compound 41, [2-(3,4-dimethoxy-phenyl)-quinolin-4-yl]-[4-(4-methoxy-phenyl)-piperazin-1-yl]-methanone] | – | – | – | Biological Data (IC50 uM) h1a (PC) (hASIC1a [1]; [4]): Not Active (OX, PC); Biological Data (IC50 uM) h1a (OX) (hASIC1a [2]; [5]): Not Active (OX, PC)
COc1ccc(-c2cc(C(=O)N3CCN(Cc4ccc5c(c4)OCO5)CC3)c3cc(Cl)ccc3n2)cc1 [Compound 44, (4-benzo[1,3]dioxol-5-ylmethyl-piperazin-1-yl)-[6-chloro-2-(4-methoxy-phenyl)-quinolin-4-yl]-methanone] | – | – | – | Biological Data (IC50 uM) h1a (PC) (hASIC1a [1]; [4]): Not Active (OX, PC); Biological Data (IC50 uM) h1a (OX) (hASIC1a [2]; [5]): Not Active (OX, PC)
Cc1ccc(-c2nc(Nc3ccc(C(=O)O)cc3)c3cc(Cl)ccc3n2)cc1 [Compound 107, 4-(6-chloro-2-p-tolyl-quinazolin-4-ylamino)-benzoic acid] | 20 to 30 µM | – | – | IC50 (hASIC1a [1]; patch clamp (PC), Tables A-F, h1a printed in some cells only, read-out: Biological Data (IC50 uM) h1a (PC)): > 30 µM
Cc1cc(N2CCN(CCc3ccccc3)CC2)c2ccccc2n1 [Compound D, 2-methyl-4-(4-phenethyl-piperazin-1-yl)-quinoline] | – | < 10 µM | > 50 µM | IC50 (hASIC1a [2]; [6]): > 50 µM
Cc1cc(N2CCCN(C)CC2)nc2cc(Cl)ccc12 [Compound F, 7-chloro-4-methyl-2-(4-methyl-[1,4]diazepan-1-yl)-quinoline] | – | < 10 µM | – | IC50 (μM) Patch Clamp (h1a) (hASIC1a [1]): Inactive
COc1ccc(-c2cc(C(=O)N3CCN(C)CC3)c3ccccc3n2)cc1OC [Compound G, [2-(3,4-dimethoxy-phenyl)-quinolin-4-yl]-(4-methyl-piperazin-1-yl)-methanone] | – | > 20 µM | – | –
COc1ccc(CN2CCN(c3cc(C)nc4ccccc34)CC2)cc1 [Compound Q, 4-[4-(4-methoxy-benzyl)-piperazin-1-yl]-2-methyl-quinoline] | 10 to 20 µM | < 10 µM | > 50 µM | –

The next lines start with results.

IC50 (hASIC3) | EC50 [3] | IC50 (hASIC1a [2]; [7]) | Compound | further results
– | > 10 µM | – | Cc1ccc(-c2nc(Nc3ccc(C(=O)O)cc3)c3ccccc3n2)cc1 [Compound K, 4-(2-p-tolyl-quinazolin-4-ylamino)-benzoic acid] | IC50 (μM) Patch Clamp (h1a) (hASIC1a [1]): Inactive; IC50 (μM) Opus Express (h1a) (hASIC1a [2]; Table H): Inactive
5 to 15 µM | > 20 µM | 23.9 µM | Cc1cc(N2CCN(CC3CCCCC3)CC2)c2ccccc2n1 [Compound O, 4-(4-cyclohexylmethyl-piperazin-1-yl)-2-methyl-quinoline] | IC50 (hASIC1a [2]; [6]): 20 to 30 µM
